The NIST ThermoML archive (doi:10.1016/j.fluid.2017.09.005)

Test: xn = mol fraction of the nth substance listed
Settings: Liquid; for mass density: Vibrating tube method

O [water] + CCCO
viscosity [mPa·s], Capillary tube (Ostwald / Ubbelohde) method, x2 = 0
Settings | 523.2 K | 573.2 K | 618.2 K
20000 kPa | 0.11 | 0.09 | 0.072
30000 kPa | 0.113 | 0.093 | 0.077
40000 kPa | 0.115 | 0.096 | 0.081

mass density [kg/m3], x2 = 0
Settings | 523.2 K | 573.2 K | 618.2 K
20000 kPa | 816.1 | 734.8 | 619.7
30000 kPa | 825.5 | 750.7 | 656.9
40000 kPa | 834.3 | 764.4 | 682.3

O [water] + CO
viscosity [mPa·s], Pressure drop in straight capillary, x2 = 0
Settings | 523.2 K | 573.2 K | 618.2 K
20000 kPa | 0.11 | 0.09 | 0.072
30000 kPa | 0.113 | 0.093 | 0.077
40000 kPa | 0.115 | 0.096 | 0.081

mass density [kg/m3], x2 = 0
Settings | 523.2 K | 573.2 K | 618.2 K
20000 kPa | 816.1 | 734.8 | 619.7
30000 kPa | 825.5 | 750.7 | 656.9
40000 kPa | 834.3 | 764.4 | 682.3

O [water] + CCO
viscosity [mPa·s], Capillary tube (Ostwald / Ubbelohde) method, x2 = 0
Settings | 523.2 K | 573.2 K | 618.2 K
20000 kPa | 0.11 | 0.09 | 0.072
30000 kPa | 0.113 | 0.093 | 0.077
40000 kPa | 0.115 | 0.096 | 0.081

mass density [kg/m3], x2 = 0
Settings | 523.2 K | 573.2 K | 618.2 K
20000 kPa | 816.1 | 734.8 | 619.7
30000 kPa | 825.5 | 750.7 | 656.9
40000 kPa | 834.3 | 764.3 | 682.3

CO [methanol] + O
viscosity [mPa·s], Pressure drop in straight capillary
Settings | x1 = 0.1 | x1 = 0.2 | x1 = 0.3 | x1 = 0.4 | x1 = 0.6 | x1 = 0.8 | x1 = 1
523.2 K, 20000 kPa | 0.116 | 0.112 | 0.108 | 0.102 | 0.09 | 0.079 | 0.07
523.2 K, 30000 kPa | 0.118 | 0.117 | 0.114 | 0.11 | 0.1 | 0.09 | 0.08
523.2 K, 40000 kPa | 0.121 | 0.121 | 0.119 | 0.115 | 0.107 | 0.098 | 0.089
573.2 K, 20000 kPa | 0.084 | 0.08 | 0.074 | 0.067 | 0.054 | 0.045 | 0.042
573.2 K, 30000 kPa | 0.089 | 0.085 | 0.078 | 0.078 | 0.072 | 0.065 | 0.063
573.2 K, 40000 kPa | 0.094 | 0.091 | 0.087 | 0.084 | 0.075 | 0.069 | 0.065
618.2 K, 20000 kPa | 0.06 | 0.035 | 0.026 | 0.025 | 0.027 | 0.027 | 0.029
618.2 K, 30000 kPa | 0.071 | 0.065 | 0.058 | 0.052 | 0.047 | 0.044 | 0.043
618.2 K, 40000 kPa | 0.078 | 0.073 | 0.069 | 0.065 | 0.059 | 0.055 | 0.053

mass density [kg/m3]
Settings | x1 = 0.1 | x1 = 0.2 | x1 = 0.3 | x1 = 0.4 | x1 = 0.6 | x1 = 0.8 | x1 = 1
523.2 K, 20000 kPa | 767.8 | 724.7 | 686.4 | 652.8 | 597.1 | 552.1 | 517.5
523.2 K, 30000 kPa | 781.4 | 740.7 | 705.9 | 677 | 628.4 | 591.4 | 563.57
523.2 K, 40000 kPa | 791.9 | 754.4 | 722.3 | 694.7 | 650.9 | 618.2 | 593.3
573.2 K, 20000 kPa | 674.5 | 619.8 | 569.3 | 522.3 | 439.6 | 380.5 | 345.3
573.2 K, 30000 kPa | 696.2 | 650.4 | 610.2 | 575.5 | 520.4 | 482.3 | 457.63
573.2 K, 40000 kPa | 714.3 | 673.1 | 638 | 608 | 562.4 | 530.6 | 511
618.2 K, 20000 kPa | 497.6 | 299.3 | 208.9 | 198.2 | 198.4 | 203.9 | 210.5
618.2 K, 30000 kPa | 586 | 524.1 | 473.1 | 430.4 | 381.7 | 360.2 | 350.4
618.2 K, 40000 kPa | 624.9 | 578.5 | 544.1 | 512 | 470.3 | 446.2 | 427.7
